Experiments:
CHI Log D procedure = type: physicochemical; details: for CHI Log D: pH 7.4
[1] = biological target: T1, full-length B-Catenin (Uniprot ID P35222) (Homo sapiens, UniProt P35222); assay: Alphascreen binding assay (beta-catenin / biotin-TCF4 10-53)
T1 construct: 65 nM full-length B-Catenin (Uniprot ID P35222)
T1 sequence (P35222 1-781): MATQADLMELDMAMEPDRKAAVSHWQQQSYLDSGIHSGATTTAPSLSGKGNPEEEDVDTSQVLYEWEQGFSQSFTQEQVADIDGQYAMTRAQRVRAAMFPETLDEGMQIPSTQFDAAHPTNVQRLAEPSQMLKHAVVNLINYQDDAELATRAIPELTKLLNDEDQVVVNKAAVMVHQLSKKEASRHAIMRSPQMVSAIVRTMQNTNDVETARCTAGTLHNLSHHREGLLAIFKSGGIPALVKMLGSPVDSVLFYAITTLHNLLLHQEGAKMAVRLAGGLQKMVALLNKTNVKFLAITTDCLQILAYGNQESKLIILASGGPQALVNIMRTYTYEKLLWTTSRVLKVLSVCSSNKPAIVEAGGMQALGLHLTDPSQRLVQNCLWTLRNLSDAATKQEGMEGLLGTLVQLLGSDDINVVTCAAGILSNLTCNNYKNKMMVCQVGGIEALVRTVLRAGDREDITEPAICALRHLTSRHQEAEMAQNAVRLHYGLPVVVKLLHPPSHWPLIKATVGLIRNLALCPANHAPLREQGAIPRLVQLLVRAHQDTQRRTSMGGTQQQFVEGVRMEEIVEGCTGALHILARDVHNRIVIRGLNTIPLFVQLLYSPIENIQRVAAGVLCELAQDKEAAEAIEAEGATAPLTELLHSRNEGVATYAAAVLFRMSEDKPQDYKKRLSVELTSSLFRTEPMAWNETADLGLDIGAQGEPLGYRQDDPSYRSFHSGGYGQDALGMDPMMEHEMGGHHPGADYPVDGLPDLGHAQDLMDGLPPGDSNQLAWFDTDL
Method in brief: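 Final concentrations: 65 nM full-length human β-catenin plus 10 nM biotin-TCF4(10-53) peptide, test peptide 3-fold from 10 uM to 5 nM, preincubated 15 min at 20 °C in Tris pH 8.0/250 mM NaCl buffer. Nickel-chelate AlphaScreen donor/acceptor beads then added for 60 min in the dark; duplicate reads fitted to 1:1 binding model with Hill slope.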

Row | Structure (SMILES) | CHI Log D (CHI Log D procedure) | EC50 [1] [µM] | chromatographic logD (CHI Log D procedure; pH 7.4, CHI Log D)
1 | CC(=O)N1CCC[C@]12CC=CCCCC1(CCCC=CCCCCCC[C@@](C)(C(=O)N[C@@H](CC(=O)O)C(=O)N[C@@H](Cc3c[nH]c4ccccc34)C(=O)N[C@@H](CCC(N)=O)C(N)=O)NC(=O)[C@H](C(C)C)NC(=O)[C@H](Cc3ccccc3)NC(=O)[C@H](C)NC(=O)[C@H](C)NC(=O)[C@H](CC(=O)O)NC(=O)[C@H](CC(=O)O)NC1=O)NC(=O)[C@H](C)NC(=O)[C@H](CC(=O)O)NC2=O (stereo partly drawn) [I-283, Ac-PL3-Asp-Ala-B5-Asp-Asp-Ala-Ala-Phe-Val-S8-Asp-Trp-Gln-NH2] |  | 9.54 | 1.29
2 | CC(=O)N1CCC[C@]12CC=CCCCC1(CCCC=CCCCCCC[C@@](C)(C(=O)N[C@@H](Cc3ccccc3)C(=O)N[C@@H](CC3CNc4ccccc43)C(=O)N[C@@H](CCC(N)=O)C(N)=O)NC(=O)[C@H](C(C)C)NC(=O)[C@H](Cc3ccccc3)NC(=O)[C@H](C)NC(=O)[C@H](C)NC(=O)[C@H](CCC(=O)O)NC(=O)[C@H](CC(=O)O)NC1=O)NC(=O)[C@H](C)NC(=O)[C@H](CC(=O)O)NC2=O (stereo partly drawn) [I-168, Ac-PL3-Asp-Ala-B5-Asp-Glu-Ala-Ala-Phe-Val-S8-Phe-H2Trp-Gln-NH2] | 1.942 | 5.64 | 
3 | CC(=O)N[C@@H](Cc1ccccc1)C(=O)N[C@@H](CC(=O)O)C(=O)N[C@@H](C)C(=O)N[C@]1(C)CCCCCCC=CCOC(=O)N2CC[C@@](C(=O)N[C@@H](CC3CCCCC3)C(=O)N[C@@H](Cc3c[nH]c4ccccc34)C(=O)N[C@@H](CCC(N)=O)C(N)=O)(C2)NC(=O)[C@H](C(C)C)NC(=O)[C@H](Cc2ccccc2)NC(=O)[C@H](C)NC(=O)[C@H](C)NC(=O)[C@H](CC(=O)O)NC(=O)[C@H](CC(=O)O)NC1=O [I-61, Ac-Phe-Asp-Ala-R8-Asp-Asp-Ala-Ala-Phe-Val-PyrS-Cha-Trp-Gln-NH2] | 1.446 | 8.9 | 

Stronger by EC50 [1], values ahead:

Row | CHI Log D (CHI Log D procedure) | EC50 [1] [µM] | chromatographic logD (CHI Log D procedure; pH 7.4, CHI Log D) | Structure (SMILES)
4 | 2.239 | 1.48 |  | CC(=O)N1CCC[C@]12CC=CCCCC1(CCCC=CCCCCCC[C@@](C)(C(=O)N[C@@H](Cc3ccccc3)C(=O)N[C@@H](Cc3c[nH]c4ccccc34)C(=O)N[C@@H](CCC(N)=O)C(N)=O)NC(=O)[C@H](C(C)C)NC(=O)[C@H](Cc3ccccc3)NC(=O)[C@H](C)NC(=O)[C@H](C)NC(=O)[C@H](CCC(N)=O)NC(=O)[C@H](CC(=O)O)NC1=O)NC(=O)[C@H](C)NC(=O)[C@H](CC(=O)O)NC2=O (stereo partly drawn) [I-126, Ac-PL3-Asp-Ala-B5-Asp-Gln-Ala-Ala-Phe-Val-S8-Phe-Trp-Gln-NH2]
5 | 1.297 | 1.94 |  | CC[C@H](C)[C@H](NC(=O)[C@H](CC(=O)O)NC(C)=O)C(=O)N[C@]1(C)CCN(C)C(=O)OCC=CCCCCC[C@@](C)(C(=O)N[C@@H](Cc2ccccc2)C(=O)N[C@@H](Cc2c[nH]c3ccccc23)C(=O)N[C@@H](Cc2c[nH]cn2)C(N)=O)NC(=O)[C@H](CCC(N)=O)NC(=O)[C@H](Cc2ccccc2)NC(=O)[C@H](C)NC(=O)[C@H](C)NC(=O)[C@H](CC(=O)O)NC(=O)[C@H](CC(=O)O)NC1=O [I-150, Ac-Asp-Ile-RdN-Asp-Asp-Ala-Ala-Phe-Gln-S7-Phe-Trp-His-NH2]
6 | 2.067 | 0.384 |  | CC(=O)N1CCC[C@]12CC=CCCCC1(CCCC=CCCCCCC[C@@](C)(C(=O)N[C@@H](Cc3ccccc3)C(=O)N[C@@H](Cc3c[nH]c4ccccc34)C(=O)N[C@@H](CCC(N)=O)C(N)=O)NC(=O)[C@H](C(C)C)NC(=O)[C@H](Cc3cccc(C(F)(F)F)c3)NC(=O)[C@H](C)NC(=O)[C@H](C)NC(=O)[C@H](CC(=O)O)NC(=O)[C@H](CC(=O)O)NC1=O)NC(=O)[C@H](C)NC(=O)[C@H](CC(=O)O)NC2=O (stereo partly drawn) [I-237, Ac-PL3-Asp-Ala-B5-Asp-Asp-Ala-Ala-3F3MeF-Val-S8-Phe-Trp-Gln-NH2]

— patent publication US20240116985A1, “STAPLED PEPTIDES AND METHODS THEREOF” (priority 2020, published 2024)
